The nature of the data set: Peptide stability in human serum. The conditions noted are these: human serum (Gibco), 37 °C, intact peptide by MALDI-TOF MS, triplicate, mean; for remaining at 6 h: 6 h incubation, read-out: percentage of peptide recovered in human serum, 6 h; for remaining at 24 h: 24 h incubation, read-out: percentage of peptide recovered in human serum, 24 h. It is filed as in vitro ADME. Here is the method:
The peptide TT1-IP was incubated at 37 °C in […] of human serum (Gibco, Illikirch, France) for different periods of time. Samples were collected and peptide degradation stopped by freezing at −20 °C. The peptide was extracted from samples using the Proteo Miner Protein Enrichment System (Bio-Rad, Marnes-la-Coquette, France). The percentage of intact peptide was estimated by mass spectrometry (MS) using MALDI-TOFF with the protocol previously described (Bruker Autoflex II, Palaiseau, France) according to the manufacturer’s instructions. Measurements were performed in triplicate. MS data were analysed using the software Cliprot tools, Flex analysis, Bruker.
iRGD-IP and Lin TT1-IP were incubated in human serum at 37 °C for different periods of time. The integrity of the peptide was analyzed by mass spectrometry (MS). Every measurement was performed in triplicate. Each value is represented as the mean ± standard deviation (SD). Similar results were obtained in two independent experiments.

Non-standard residues stand in square brackets, D forms with d. Residues, ends and D or L forms follow the SMILES beside them. Ahx = NCCCCCC(=O)O

Regarding `CC[C@H](C)[C@H](NC(=O)[C@H](CCCNC(=N)N)NC(=O)[C@H](CCC(=O)O)NC(=O)[C@H](CCCNC(=N)N)NC(=O)[C@H](Cc1ccc(O)cc1)NC(=O)[C@H](CCCNC(=N)N)NC(=O)[C@@H](NC(=O)[C@H](CCCCN)NC(=O)[C@H](CC(C)C)NC(=O)[C@H](C)NC(=O)[C@@H](NC(=O)[C@H](CC(C)C)NC(=O)[C@H](CC(C)C)NC(=O)[C@@H](NC(=O)[C@@H](NC(=O)[C@@H](NC(=O)[C@@H](N)CCC(=O)O)[C@@H](C)O)C(C)C)[C@@H](C)O)C(C)C)C(C)C)C(=O)N[C@H](C(=O)NCCCCCC(=O)N[C@@H](C)C(=O)N[C@@H](CCCCN)C(=O)N[C@@H](CCCNC(=N)N)C(=O)NCC(=O)N[C@@H](C)C(=O)N[C@@H](CCCNC(=N)N)C(=O)N[C@@H](CO)C(=O)N[C@H](C(=O)N[C@@H](C)C(N)=O)[C@@H](C)O)[C@@H](C)O` [Lin TT1-IP] (H-ETVTLLVALKVRYRERIT[Ahx]AKRGARSTA-NH2), the remaining at 6 h worked out at 44% and the remaining at 24 h was roughly 30%. Further, the remaining at 3 h (3 h incubation, read-out: percentage of peptide recovered in human serum, 3 h) was roughly 80%.
`CC[C@H](C)[C@H](NC(=O)[C@H](CCCNC(=N)N)NC(=O)[C@H](CCC(=O)O)NC(=O)[C@H](CCCNC(=N)N)NC(=O)[C@H](Cc1ccc(O)cc1)NC(=O)[C@H](CCCNC(=N)N)NC(=O)[C@@H](NC(=O)[C@H](CCCCN)NC(=O)[C@H](CC(C)C)NC(=O)[C@H](C)NC(=O)[C@@H](NC(=O)[C@H](CC(C)C)NC(=O)[C@H](CC(C)C)NC(=O)[C@@H](NC(=O)[C@@H](NC(=O)[C@@H](NC(=O)[C@@H](N)CCC(=O)O)[C@@H](C)O)C(C)C)[C@@H](C)O)C(C)C)C(C)C)C(=O)N[C@H](C(=O)NCCCCCC(=O)N[C@H]1CSSC[C@@H](C(N)=O)NC(=O)[C@H](CC(=O)O)NC(=O)[C@@H]2CCCN2C(=O)CNC(=O)[C@H](CCCCN)NC(=O)[C@H](CC(=O)O)NC(=O)CNC(=O)[C@H](CCCNC(=N)N)NC1=O)[C@@H](C)O` [iRGD-IP]: the remaining at 6 h is 77% and the remaining at 24 h is 62%. Also, the remaining at 1 h (1 h incubation, read-out: percentage of peptide recovered in human serum, 1 h) worked out at 91%.
